In patent US20220033434A1, “ANDROGEN RECEPTOR NUCLEIC ACIDS AND USES THEREOF” (Avidity Biosciences, Inc., priority 2016, published 2022):
In the oligonucleotide strings, read from the 5' end, every base follows the letter of its sugar. An asterisk marks phosphorothioate; unmarked linkages are phosphodiester. Other units and linkages are bracketed, terminal groups are in braces. A string of capitals states the bases alone. d = 2'-deoxy (DNA); m = 2'-O-methyl; f = 2'-fluoro

Columns and labels:
Format in all cases: cell-based, human
AR mRNA [1] = assay: AR mRNA downregulation by RT-qPCR at 5 nM siRNA in 22RV1 cells; conditions: 24 hrs post-transfection
Protocol: (§1) Focusing on siRNAs targeting AR sequences exons 1 and 2, the ability of these siRNAs to downregulate AR mRNA at a concentration of 5 nM was determined by RT-qPCR. For this purpose, siRNAs were transfected into 22RV1 and LNCaP cells as described above. At 24 hrs post-transfection, RNA was harvested from cells using a Qiagen RNeasy® Plus Mini Kit or Stratec InviTrap® RNA Cell HTS96 kit. The concentration of each isolated RNA was determined via A260 measurement using a NanoDrop spectrophotometer. RNA samples were reverse transcribed to cDNA using the High Capacity RNA to cDNA Kit (Life Technologies) according to the manufacturer's instructions. cDNA samples were then quantified by qPCR using AR-specific probes and results normalized to either endogenous β-actin or PPIB using the standard 2^−ΔΔCt method. These studies identified 6 siRNAs that at a concentration of 5 nM down regulated AR mRNA in 22RV1 and LNCaP cells by more than 80% compared to controls (Table 4).

AR-SV(2) = assay: AR protein knock-down by Western blot after siRNA transfection in 22RV1 cells: AR-SV(2); conditions: 5 nM siRNA, 50 h post transfection, compared to controls
Protocol: (§2) In some instances, a set of AR siRNAs were identified that were predicted to be specific in human and non-human primates (NHP) and cross-reactive with NHPs but not rodent AR mRNA. To identify AR siRNAs that regulate both full length AR and clinically relevant AR splice variants, the search for AR siRNAs was focused primarily, but not exclusively, on exons 1, 2 and 3 of the AR gene, which are common to most AR isoforms. The resulting set of 50 AR siRNAs (Tables 1-3) was assessed in two prostate cancer lines that express high levels of either clinically relevant AR splice variants (22RV1, ATCC) or a full length AR T877A LBD mutant (LNCaP, ATCC). The response of LNCaP tumors in xenograft models to AR antagonists is known to correlate well with clinical responses.
(§3) To monitor their ability to downregulate various AR isoforms, each siRNA was formulated at a single final concentration of 5 nM with a commercially-available transfection reagent (Lipofectamine RNAiMAX, Life Technologies) according to the manufacturer's “forward transfection” instructions. At 50 h (22RV1) and 72 h (LNCaP) post transfection, cells were harvested, and lysed in RIPA buffer (Pierce) supplemented with HALT protease inhibitors (Pierce) using standard procedures. The protein concentration was determined using a BCA protein concentration kit (Pierce). To monitor AR levels in these lysates, proteins (30 ug/lane) were separated by PAGE on BOLT 4-12% Bis-Tris PA gels (Life Technologies), transferred to nitrocellulose using an iBlot dry blot system (Thermo Fisher), and probed with specific antibodies against a region of the N-terminal domain of human AR that is common in known clinically relevant splice variants (N20, Santa Cruz Biotech). A second antibody against α-Tubulin was used as control (P16, Santa Cruz Biotech). Levels of these proteins in the respective cell lysates were quantified on an Odyssey imaging system (LICOR) using appropriate secondary antibodies linked to IRDyes (800CW, 680RD).

[2] = test system: AR FL (full length AR T877A LBD mutant); assay: AR protein knock-down by Western blot after siRNA transfection in LNCaP cells: AR FL; conditions: 5 nM siRNA, 72 h post transfection, compared to controls
Protocol: as §2, §3

AR-SV(3) = assay: AR protein knock-down by Western blot after siRNA transfection in 22RV1 cells: AR-SV(3); conditions: 5 nM siRNA, 50 h post transfection, compared to controls
Protocol: as §2, §3

AR mRNA [3] = assay: AR mRNA downregulation by RT-qPCR at 5 nM siRNA in LNCaP cells; conditions: 24 hrs post-transfection
Protocol: as §1

AR FL(1) = assay: AR protein knock-down by Western blot after siRNA transfection in 22RV1 cells: AR FL(1); conditions: 5 nM siRNA, 50 h post transfection, compared to controls
Protocol: as §2, §3

XD-01813: AR siRNA with chemical modification, Id # 1201; sense X05321 (SEQ ID NO: 151), antisense X05322 (SEQ ID NO: 152) (sense mGmCfGmUfGmCfGmCfGmAfAmGfUmGfAmUfCmCfAdT*dT; antisense fUfGmGfAmUfCmAfCmUfUmCfGmCfGmCfAmCfGmCdT*dT)
% KD AR RNA 22RV1 (AR mRNA [1]): 53%
% KD AR Protein 22RV1 AR-SV(2) (AR-SV(2)): 77%
% KD AR Protein LNCaP AR FL [2]: 98%
% KD AR Protein 22RV1 AR-SV(3) (AR-SV(3)): 80%
% KD AR RNA LNCaP (AR mRNA [3]): 66%
% KD AR Protein 22RV1 AR FL(1) (AR FL(1)): 73%

XD-01816: AR siRNA with chemical modification, Id # 1984; sense X05327 (SEQ ID NO: 157), antisense X05328 (SEQ ID NO: 158) (sense mGmCfAmAfAmGfGmUfUmCfUmCfUmGfCmUfAmGfAdT*dT; antisense fUfCmUfAmGfCmAfGmAfGmAfAmCfCmUfUmUfGmCdT*dT)
% KD AR RNA 22RV1 (AR mRNA [1]): 60%
% KD AR Protein 22RV1 AR-SV(2) (AR-SV(2)): 66%
% KD AR Protein LNCaP AR FL [2]: 97%
% KD AR Protein 22RV1 AR-SV(3) (AR-SV(3)): 69%
% KD AR RNA LNCaP (AR mRNA [3]): 74%
% KD AR Protein 22RV1 AR FL(1) (AR FL(1)): 57%

XD-01820: AR siRNA with chemical modification, Id # 2189; sense X05335 (SEQ ID NO: 165), antisense X05336 (SEQ ID NO: 166) (sense mGmUfAmCfCmAfGmAfGmUfCmGfCmGfAmCfUmAfCdT*dT; antisense fGfUmAfGmUfCmGfCmGfAmCfUmCfUmGfGmUfAmCdT*dT)
% KD AR RNA 22RV1 (AR mRNA [1]): 46%
% KD AR Protein 22RV1 AR-SV(2) (AR-SV(2)): 91%
% KD AR Protein LNCaP AR FL [2]: 100%
% KD AR Protein 22RV1 AR-SV(3) (AR-SV(3)): 91%
% KD AR RNA LNCaP (AR mRNA [3]): 59%
% KD AR Protein 22RV1 AR FL(1) (AR FL(1)): 85%

XD-01853: AR siRNA with chemical modification, Id # 3310; sense X05401 (SEQ ID NO: 231), antisense X05402 (SEQ ID NO: 232) (sense mAmCfGmAfCmCfAmGfAmUfGmGfCmUfGmUfCmAfUdT*dT; antisense fAfUmGfAmCfAmGfCmCfAmUfCmUfGmGfUmCfGmUdT*dT)
% KD AR Protein 22RV1 AR-SV(2) (AR-SV(2)): −43%
% KD AR Protein LNCaP AR FL [2]: 99%
% KD AR Protein 22RV1 AR-SV(3) (AR-SV(3)): 13%
% KD AR Protein 22RV1 AR FL(1) (AR FL(1)): 91%

XD-01854: AR siRNA with chemical modification, Id # 3416; sense X05403 (SEQ ID NO: 233), antisense X05404 (SEQ ID NO: 234) (sense mUmGfAmUfCmUfGmGfUmUfUmUfCmAfAmUfGmAfGdT*dT; antisense fCfUmCfAmUfUmGfAmAfAmAfCmCfAmGfAmUfCmAdT*dT)
% KD AR Protein 22RV1 AR-SV(2) (AR-SV(2)): 38%
% KD AR Protein LNCaP AR FL [2]: 93%
% KD AR Protein 22RV1 AR-SV(3) (AR-SV(3)): 46%
% KD AR Protein 22RV1 AR FL(1) (AR FL(1)): 95%

XD-01855: AR siRNA with chemical modification, Id # 3462; sense X05405 (SEQ ID NO: 235), antisense X05406 (SEQ ID NO: 236) (sense mAmGfCmCfAmGfUmGfUmGfUmCfCmGfAmAfUmGfAdT*dT; antisense fUfCmAfUmUfCmGfGmAfCmAfCmAfCmUfGmGfCmUdT*dT)
% KD AR Protein 22RV1 AR-SV(2) (AR-SV(2)): −1%
% KD AR Protein LNCaP AR FL [2]: 75%
% KD AR Protein 22RV1 AR-SV(3) (AR-SV(3)): −18%
% KD AR Protein 22RV1 AR FL(1) (AR FL(1)): 12%

XD-01856: AR siRNA with chemical modification, Id # 3469; sense X05407 (SEQ ID NO: 237), antisense X05408 (SEQ ID NO: 238) (sense mGmUfGmUfCmCfGmAfAmUfGmAfGmGfCmAfCmCfUdT*dT; antisense fAfGmGfUmGfCmCfUmCfAmUfUmCfGmGfAmCfAmCdT*dT)
% KD AR Protein 22RV1 AR-SV(2) (AR-SV(2)): −61%
% KD AR Protein LNCaP AR FL [2]: 99%
% KD AR Protein 22RV1 AR-SV(3) (AR-SV(3)): −74%
% KD AR Protein 22RV1 AR FL(1) (AR FL(1)): 77%

XD-01857: AR siRNA with chemical modification, Id # 3473; sense X05409 (SEQ ID NO: 239), antisense X05410 (SEQ ID NO: 240) (sense mCmCfGmAfAmUfGmAfGmGfCmAfCmCfUmCfUmCfUdT*dT; antisense fAfGmAfGmAfGmGfUmGfCmCfUmCfAmUfUmCfGmGdT*dT)
% KD AR Protein 22RV1 AR-SV(2) (AR-SV(2)): −7%
% KD AR Protein LNCaP AR FL [2]: 100%
% KD AR Protein 22RV1 AR-SV(3) (AR-SV(3)): 1%
% KD AR Protein 22RV1 AR FL(1) (AR FL(1)): 79%

XD-01858: AR siRNA with chemical modification, Id # 3475; sense X05411 (SEQ ID NO: 241), antisense X05412 (SEQ ID NO: 242) (sense mGmAfAmUfGmAfGmGfCmAfCmCfUmCfUmCfUmCfAdT*dT; antisense fUfGmAfGmAfGmAfGmGfUmGfCmCfUmCfAmUfUmCdT*dT)
% KD AR Protein 22RV1 AR-SV(2) (AR-SV(2)): 25%
% KD AR Protein LNCaP AR FL [2]: 99%
% KD AR Protein 22RV1 AR-SV(3) (AR-SV(3)): 66%
% KD AR Protein 22RV1 AR FL(1) (AR FL(1)): 93%

XD-01859: AR siRNA with chemical modification, Id # 3481; sense X05413 (SEQ ID NO: 243), antisense X05414 (SEQ ID NO: 244) (sense mGmGfCmAfCmCfUmCfUmCfUmCfAmAfGmAfGmUfUdT*dT; antisense fAfAmCfUmCfUmUfGmAfGmAfGmAfGmGfUmGfCmCdT*dT)
% KD AR Protein 22RV1 AR-SV(2) (AR-SV(2)): −23%
% KD AR Protein LNCaP AR FL [2]: 100%
% KD AR Protein 22RV1 AR-SV(3) (AR-SV(3)): −49%
% KD AR Protein 22RV1 AR FL(1) (AR FL(1)): 87%

XD-01860: AR siRNA with chemical modification, Id # 3629; sense X05415 (SEQ ID NO: 245), antisense X05416 (SEQ ID NO: 246) (sense mAmCfUmCfGmAfUmCfGmUfAmUfCmAfUmUfGmCfAdT*dT; antisense fUfGmCfAmAfUmGfAmUfAmCfGmAfUmCfGmAfGmUdT*dT)
% KD AR Protein 22RV1 AR-SV(2) (AR-SV(2)): −9%
% KD AR Protein LNCaP AR FL [2]: 99%
% KD AR Protein 22RV1 AR-SV(3) (AR-SV(3)): 4%
% KD AR Protein 22RV1 AR FL(1) (AR FL(1)): 90%

XD-01861: AR siRNA with chemical modification, Id # 3779; sense X05417 (SEQ ID NO: 247), antisense X05418 (SEQ ID NO: 248) (sense mGmAfGmCfGmUfGmGfAmCfUmUfUmCfCmGfGmAfAdT*dT; antisense fUfUmCfCmGfGmAfAmAfGmUfCmCfAmCfGmCfUmCdT*dT)
% KD AR Protein 22RV1 AR-SV(2) (AR-SV(2)): 11%
% KD AR Protein LNCaP AR FL [2]: 99%
% KD AR Protein 22RV1 AR-SV(3) (AR-SV(3)): 51%
% KD AR Protein 22RV1 AR FL(1) (AR FL(1)): 90%

XD-01862: AR siRNA with chemical modification, Id # 3781; sense X05419 (SEQ ID NO: 249), antisense X05420 (SEQ ID NO: 250) (sense mGmCfGmUfGmGfAmCfUmUfUmCfCmGfGmAfAmAfUdT*dT; antisense fAfUmUfUmCfCmGfGmAfAmAfGmUfCmCfAmCfGmCdT*dT)
% KD AR Protein 22RV1 AR-SV(2) (AR-SV(2)): 24%
% KD AR Protein LNCaP AR FL [2]: 87%
% KD AR Protein 22RV1 AR-SV(3) (AR-SV(3)): 40%
% KD AR Protein 22RV1 AR FL(1) (AR FL(1)): 92%
